Measured values as given in ChEMBL document CHEMBL4507263, “Data for DCP probe BAY-474” (2021).

Assays:
[1] = molecular target: Serine/threonine-protein kinase BRSK2 (Homo sapiens) (UniProt Q8IWQ3); assay: BrSK2 (h) Millipore kinase activity assay; details: Compound concentration 1.0 uM
[2] = molecular target: Serine/threonine-protein kinase Chk2 (Homo sapiens) (UniProt O96017); assay: CHK2 (h) Millipore kinase activity assay; details: Compound concentration 1.0 uM
[3] = molecular target: Casein kinase I isoform delta (Homo sapiens) (UniProt P48730); assay: CK1delta (h) Millipore kinase activity assay; details: Compound concentration 1.0 uM
[4] = molecular target: Death-associated protein kinase 2 (Homo sapiens) (UniProt Q9UIK4); assay: DAPK2 (h) Millipore kinase activity assay; details: Compound concentration 1.0 uM
[5] = molecular target: Focal adhesion kinase 1 (Homo sapiens) (UniProt Q05397); assay: FAK (h) Millipore kinase activity assay; details: Compound concentration 1.0 uM
[6] = molecular target: Ribosomal protein S6 kinase beta-1 (Homo sapiens) (UniProt P23443); assay: p70S6K (h) Millipore kinase activity assay; details: Compound concentration 1.0 uM
[7] = molecular target: Angiopoietin-1 receptor (Homo sapiens) (UniProt Q02763); assay: Tie2 (h) Millipore kinase activity assay; details: Compound concentration 1.0 uM
[8] = molecular target: Beta-2 adrenergic receptor (Homo sapiens) (UniProt P07550); details: Compound concentration 10.0 uM
[9] = molecular target: D(2) dopamine receptor (Homo sapiens) (UniProt P14416); details: Compound concentration 10.0 uM
[10] = molecular target: T1, Muscarinic acetylcholine receptor M2 (Homo sapiens) (UniProt P08172); details: Compound concentration 10.0 uM
T1 sequence (whole entry): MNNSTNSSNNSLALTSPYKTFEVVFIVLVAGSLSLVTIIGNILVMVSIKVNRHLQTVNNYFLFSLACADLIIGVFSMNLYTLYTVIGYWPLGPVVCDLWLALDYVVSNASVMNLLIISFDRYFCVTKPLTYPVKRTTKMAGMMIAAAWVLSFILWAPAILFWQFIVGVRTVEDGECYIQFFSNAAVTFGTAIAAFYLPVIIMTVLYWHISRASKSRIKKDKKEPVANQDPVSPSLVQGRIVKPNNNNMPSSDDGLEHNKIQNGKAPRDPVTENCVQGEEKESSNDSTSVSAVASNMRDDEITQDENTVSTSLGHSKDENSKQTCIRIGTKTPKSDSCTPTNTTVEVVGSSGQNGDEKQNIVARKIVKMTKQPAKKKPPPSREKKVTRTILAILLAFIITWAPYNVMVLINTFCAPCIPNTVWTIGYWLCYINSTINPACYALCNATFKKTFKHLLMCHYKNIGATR

[11] = molecular target: Sodium-dependent noradrenaline transporter (Homo sapiens) (UniProt P23975); details: Compound concentration 10.0 uM
[12] = test system: Tyrosine-protein kinase ABL1 (Homo sapiens), P00519 [M351T]; details: Compound concentration 1000.0 nM
[13] = molecular target: Serine/threonine-protein kinase BRSK1 (Homo sapiens) (UniProt Q8TDC3); details: Compound concentration 1000.0 nM
[14] = molecular target: Macrophage colony-stimulating factor 1 receptor (Homo sapiens) (UniProt P07333); details: Compound concentration 1000.0 nM
[15] = molecular target: Megakaryocyte-associated tyrosine-protein kinase (Homo sapiens) (UniProt P42679); details: Compound concentration 1000.0 nM
[16] = molecular target: Death-associated protein kinase 1 (Homo sapiens) (UniProt P53355); details: Compound concentration 1000.0 nM
[17] = molecular target: Discoidin domain-containing receptor 2 (Homo sapiens) (UniProt Q16832); details: Compound concentration 1000.0 nM
[18] = molecular target: Mitogen-activated protein kinase kinase kinase 12 (Homo sapiens) (UniProt Q12852); details: Compound concentration 1000.0 nM
[19] = molecular target: Fibroblast growth factor receptor 4 (Homo sapiens) (UniProt P22455); details: Compound concentration 1000.0 nM
[20] = test system: Receptor-type tyrosine-protein kinase FLT3 (Homo sapiens), P36888 [N841I]; details: Compound concentration 1000.0 nM
[21] = molecular target: Homeodomain-interacting protein kinase 1 (Homo sapiens) (UniProt Q86Z02); details: Compound concentration 1000.0 nM
[22] = molecular target: Inhibitor of nuclear factor kappa-B kinase subunit alpha (Homo sapiens) (UniProt O15111); details: Compound concentration 1000.0 nM
[23] = molecular target: Mast/stem cell growth factor receptor Kit (Homo sapiens) (UniProt P10721); details: Compound concentration 1000.0 nM
[24] = test system: Leucine-rich repeat serine/threonine-protein kinase 2 (Homo sapiens), Q5S007 [G2019S]; details: Compound concentration 1000.0 nM
[25] = molecular target: Dual specificity mitogen-activated protein kinase kinase 3 (Homo sapiens) (UniProt P46734); details: Compound concentration 1000.0 nM
[26] = molecular target: Dual specificity mitogen-activated protein kinase kinase 5 (Homo sapiens) (UniProt Q13163); details: Compound concentration 1000.0 nM
[27] = molecular target: Serine/threonine-protein kinase 4 (Homo sapiens) (UniProt Q13043); details: Compound concentration 1000.0 nM
[28] = molecular target: Serine/threonine-protein kinase Nek5 (Homo sapiens) (UniProt Q6P3R8); details: Compound concentration 1000.0 nM
[29] = molecular target: Serine/threonine-protein kinase Nek6 (Homo sapiens) (UniProt Q9HC98); details: Compound concentration 1000.0 nM
[30] = molecular target: Serine/threonine-protein kinase PAK 1 (Homo sapiens) (UniProt Q13153); details: Compound concentration 1000.0 nM
[31] = molecular target: Phosphatidylinositol 3-kinase C2 domain-containing subunit gamma (Homo sapiens) (UniProt O75747); details: Compound concentration 1000.0 nM
[32] = test system: Phosphatidylinositol 4,5-bisphosphate 3-kinase catalytic subunit alpha isoform (Homo sapiens), P42336 [C420R]; details: Compound concentration 1000.0 nM
[33] = molecular target: Phosphatidylinositol 4,5-bisphosphate 3-kinase catalytic subunit delta isoform (Homo sapiens) (UniProt O00329); details: Compound concentration 1000.0 nM
[34] = test system: Proto-oncogene tyrosine-protein kinase receptor Ret (Homo sapiens), P07949 [V804M]; details: Compound concentration 1000.0 nM
[35] = molecular target: Proto-oncogene tyrosine-protein kinase ROS (Homo sapiens) (UniProt P08922); details: Compound concentration 1000.0 nM
[36] = molecular target: Ribosomal protein S6 kinase alpha-5 (Homo sapiens) (UniProt O75582); details: Compound concentration 1000.0 nM
[37] = molecular target: Testis-specific serine/threonine-protein kinase 1 (Homo sapiens) (UniProt Q9BXA7); details: Compound concentration 1000.0 nM
[38] = molecular target: Tyrosine-protein kinase TXK (Homo sapiens) (UniProt P42681); details: Compound concentration 1000.0 nM
[39] = molecular target: Phosphatidylinositol 3-kinase catalytic subunit type 3 (Homo sapiens) (UniProt Q8NEB9); details: Compound concentration 1000.0 nM

Chain of Serine/threonine-protein kinase PAK 1 (Homo sapiens) (Q13153 whole entry, the tested form may be a part): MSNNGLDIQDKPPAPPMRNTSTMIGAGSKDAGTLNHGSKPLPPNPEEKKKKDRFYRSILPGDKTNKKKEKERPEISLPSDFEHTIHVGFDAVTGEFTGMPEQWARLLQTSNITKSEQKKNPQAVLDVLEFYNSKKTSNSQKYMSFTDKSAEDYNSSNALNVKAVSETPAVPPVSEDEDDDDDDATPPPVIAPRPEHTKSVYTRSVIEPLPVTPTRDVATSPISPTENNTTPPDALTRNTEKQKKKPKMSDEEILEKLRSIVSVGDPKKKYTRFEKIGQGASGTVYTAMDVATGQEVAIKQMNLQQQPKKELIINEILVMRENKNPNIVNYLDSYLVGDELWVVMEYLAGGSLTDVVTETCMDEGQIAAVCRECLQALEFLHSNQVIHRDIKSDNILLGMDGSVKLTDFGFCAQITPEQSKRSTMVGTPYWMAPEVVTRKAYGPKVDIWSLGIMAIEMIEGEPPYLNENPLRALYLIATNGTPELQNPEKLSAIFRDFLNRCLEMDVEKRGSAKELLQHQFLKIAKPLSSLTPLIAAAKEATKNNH
Chain of Serine/threonine-protein kinase Chk2 (Homo sapiens) (O96017 whole entry, canonical isoform): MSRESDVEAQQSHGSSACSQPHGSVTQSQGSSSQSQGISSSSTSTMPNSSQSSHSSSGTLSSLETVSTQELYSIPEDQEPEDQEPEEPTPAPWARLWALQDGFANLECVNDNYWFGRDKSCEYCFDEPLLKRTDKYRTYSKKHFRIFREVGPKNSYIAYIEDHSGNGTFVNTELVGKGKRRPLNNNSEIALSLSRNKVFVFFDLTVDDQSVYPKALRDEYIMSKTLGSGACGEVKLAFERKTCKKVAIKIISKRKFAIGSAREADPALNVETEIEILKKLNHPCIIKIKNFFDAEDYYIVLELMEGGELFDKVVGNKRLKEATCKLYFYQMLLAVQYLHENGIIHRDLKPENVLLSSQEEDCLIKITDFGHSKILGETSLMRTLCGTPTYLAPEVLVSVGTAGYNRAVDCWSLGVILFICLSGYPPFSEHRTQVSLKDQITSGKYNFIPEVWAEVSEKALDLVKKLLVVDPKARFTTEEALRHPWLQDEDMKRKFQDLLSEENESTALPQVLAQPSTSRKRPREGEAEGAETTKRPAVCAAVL
Chain of Beta-2 adrenergic receptor (Homo sapiens) (P07550 whole entry, looked up): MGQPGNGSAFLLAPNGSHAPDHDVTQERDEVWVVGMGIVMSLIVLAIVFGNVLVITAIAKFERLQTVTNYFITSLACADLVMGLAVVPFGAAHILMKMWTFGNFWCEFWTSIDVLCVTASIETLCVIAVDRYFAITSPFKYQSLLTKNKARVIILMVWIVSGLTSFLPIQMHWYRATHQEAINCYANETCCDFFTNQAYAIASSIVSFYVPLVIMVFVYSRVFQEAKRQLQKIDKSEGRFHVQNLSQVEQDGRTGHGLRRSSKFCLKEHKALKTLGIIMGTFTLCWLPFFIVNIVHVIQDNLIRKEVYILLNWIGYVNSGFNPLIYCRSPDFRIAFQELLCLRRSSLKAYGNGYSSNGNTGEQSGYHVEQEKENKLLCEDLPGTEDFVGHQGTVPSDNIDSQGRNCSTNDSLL
Chain of Inhibitor of nuclear factor kappa-B kinase subunit alpha (Homo sapiens) (O15111 whole entry): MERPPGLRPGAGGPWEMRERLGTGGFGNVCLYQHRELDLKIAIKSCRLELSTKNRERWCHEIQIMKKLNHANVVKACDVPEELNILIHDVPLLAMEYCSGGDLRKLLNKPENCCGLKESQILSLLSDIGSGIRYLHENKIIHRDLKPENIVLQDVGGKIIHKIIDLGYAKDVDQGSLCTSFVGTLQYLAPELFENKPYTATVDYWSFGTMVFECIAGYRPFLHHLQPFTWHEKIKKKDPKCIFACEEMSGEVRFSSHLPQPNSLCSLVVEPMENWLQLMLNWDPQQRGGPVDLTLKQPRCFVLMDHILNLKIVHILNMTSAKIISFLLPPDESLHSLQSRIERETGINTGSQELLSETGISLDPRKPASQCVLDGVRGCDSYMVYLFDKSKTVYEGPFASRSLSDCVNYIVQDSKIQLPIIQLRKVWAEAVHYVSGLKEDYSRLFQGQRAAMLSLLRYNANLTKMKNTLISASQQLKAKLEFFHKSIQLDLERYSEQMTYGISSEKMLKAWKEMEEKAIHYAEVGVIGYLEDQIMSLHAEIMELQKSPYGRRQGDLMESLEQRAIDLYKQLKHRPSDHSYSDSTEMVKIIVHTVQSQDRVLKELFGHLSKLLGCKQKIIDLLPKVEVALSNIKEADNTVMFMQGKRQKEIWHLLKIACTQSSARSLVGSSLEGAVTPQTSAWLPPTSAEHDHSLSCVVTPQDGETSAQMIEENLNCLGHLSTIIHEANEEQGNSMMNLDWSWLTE
Chain of Proto-oncogene tyrosine-protein kinase ROS (Homo sapiens) (P08922 whole entry): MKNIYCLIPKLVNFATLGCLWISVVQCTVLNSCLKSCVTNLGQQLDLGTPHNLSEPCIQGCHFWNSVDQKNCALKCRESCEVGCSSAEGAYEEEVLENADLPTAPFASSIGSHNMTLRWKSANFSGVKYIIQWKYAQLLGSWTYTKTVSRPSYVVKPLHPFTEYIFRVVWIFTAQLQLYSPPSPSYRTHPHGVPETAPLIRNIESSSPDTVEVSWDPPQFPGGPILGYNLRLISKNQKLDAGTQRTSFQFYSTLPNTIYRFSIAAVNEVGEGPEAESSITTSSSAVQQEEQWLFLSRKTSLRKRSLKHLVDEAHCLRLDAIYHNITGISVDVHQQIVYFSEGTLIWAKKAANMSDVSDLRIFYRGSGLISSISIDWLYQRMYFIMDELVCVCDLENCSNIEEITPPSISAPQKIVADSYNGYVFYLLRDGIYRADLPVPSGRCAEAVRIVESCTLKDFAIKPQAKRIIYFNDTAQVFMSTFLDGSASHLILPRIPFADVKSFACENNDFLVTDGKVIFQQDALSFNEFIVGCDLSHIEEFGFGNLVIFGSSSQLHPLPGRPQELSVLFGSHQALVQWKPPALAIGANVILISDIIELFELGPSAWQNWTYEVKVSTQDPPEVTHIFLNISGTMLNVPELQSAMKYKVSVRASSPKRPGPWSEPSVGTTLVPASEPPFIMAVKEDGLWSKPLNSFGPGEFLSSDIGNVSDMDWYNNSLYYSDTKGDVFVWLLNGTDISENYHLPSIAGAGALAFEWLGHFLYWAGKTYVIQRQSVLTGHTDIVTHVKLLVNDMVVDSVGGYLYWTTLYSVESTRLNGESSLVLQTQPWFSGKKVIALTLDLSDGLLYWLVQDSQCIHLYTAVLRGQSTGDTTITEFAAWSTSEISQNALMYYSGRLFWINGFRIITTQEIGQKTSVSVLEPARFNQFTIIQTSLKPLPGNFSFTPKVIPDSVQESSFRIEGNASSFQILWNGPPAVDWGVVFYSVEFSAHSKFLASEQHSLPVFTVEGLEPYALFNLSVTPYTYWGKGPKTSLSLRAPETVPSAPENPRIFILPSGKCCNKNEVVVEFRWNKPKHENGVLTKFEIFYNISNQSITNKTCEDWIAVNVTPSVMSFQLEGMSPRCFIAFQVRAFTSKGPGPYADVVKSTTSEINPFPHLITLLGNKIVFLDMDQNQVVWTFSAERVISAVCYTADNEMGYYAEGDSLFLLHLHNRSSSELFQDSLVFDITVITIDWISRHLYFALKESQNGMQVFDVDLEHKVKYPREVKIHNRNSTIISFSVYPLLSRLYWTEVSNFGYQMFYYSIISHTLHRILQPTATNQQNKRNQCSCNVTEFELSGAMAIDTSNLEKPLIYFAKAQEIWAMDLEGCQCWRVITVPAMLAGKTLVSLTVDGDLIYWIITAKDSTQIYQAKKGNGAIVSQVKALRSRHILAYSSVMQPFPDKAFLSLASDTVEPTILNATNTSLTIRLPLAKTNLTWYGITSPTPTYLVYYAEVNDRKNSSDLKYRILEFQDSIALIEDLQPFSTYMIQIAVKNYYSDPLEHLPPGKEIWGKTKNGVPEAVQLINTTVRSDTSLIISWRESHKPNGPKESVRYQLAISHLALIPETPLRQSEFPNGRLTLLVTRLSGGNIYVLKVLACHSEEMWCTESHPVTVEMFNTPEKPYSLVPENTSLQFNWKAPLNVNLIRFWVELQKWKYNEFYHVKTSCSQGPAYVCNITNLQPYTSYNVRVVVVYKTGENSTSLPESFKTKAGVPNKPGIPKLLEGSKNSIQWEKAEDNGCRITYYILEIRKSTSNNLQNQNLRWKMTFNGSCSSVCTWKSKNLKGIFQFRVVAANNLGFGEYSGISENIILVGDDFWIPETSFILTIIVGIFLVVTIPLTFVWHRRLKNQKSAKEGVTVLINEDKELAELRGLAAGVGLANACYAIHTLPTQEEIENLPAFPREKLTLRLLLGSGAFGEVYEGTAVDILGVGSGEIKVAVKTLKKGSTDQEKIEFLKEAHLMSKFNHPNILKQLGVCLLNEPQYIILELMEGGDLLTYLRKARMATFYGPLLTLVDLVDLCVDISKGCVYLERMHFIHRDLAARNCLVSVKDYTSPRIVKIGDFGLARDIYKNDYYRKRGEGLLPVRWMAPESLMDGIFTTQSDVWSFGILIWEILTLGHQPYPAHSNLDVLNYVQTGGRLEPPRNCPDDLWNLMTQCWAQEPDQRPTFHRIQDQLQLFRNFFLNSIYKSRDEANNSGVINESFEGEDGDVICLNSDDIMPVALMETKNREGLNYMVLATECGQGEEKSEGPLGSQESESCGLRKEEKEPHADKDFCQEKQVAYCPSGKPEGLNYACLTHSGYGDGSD
Chain of D(2) dopamine receptor (Homo sapiens) (P14416 whole entry): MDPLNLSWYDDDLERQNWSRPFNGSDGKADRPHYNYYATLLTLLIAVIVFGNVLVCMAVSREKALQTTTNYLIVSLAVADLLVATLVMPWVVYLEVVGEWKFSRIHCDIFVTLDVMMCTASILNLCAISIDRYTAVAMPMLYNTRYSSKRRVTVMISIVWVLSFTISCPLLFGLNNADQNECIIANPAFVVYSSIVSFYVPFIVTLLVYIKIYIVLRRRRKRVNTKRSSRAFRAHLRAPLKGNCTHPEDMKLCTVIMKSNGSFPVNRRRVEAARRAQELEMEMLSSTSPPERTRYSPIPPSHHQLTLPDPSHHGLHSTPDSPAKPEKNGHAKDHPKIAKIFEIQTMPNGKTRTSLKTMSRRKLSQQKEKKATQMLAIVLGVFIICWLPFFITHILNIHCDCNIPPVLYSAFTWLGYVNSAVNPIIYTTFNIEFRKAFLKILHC

## CC1=C(C#N)C(c2ccc3[nH]nc(C)c3c2)C(C#N)=C(C)N1 [BAY-474]
[1]
  inhibition: 21%
[2]
  inhibition: 4%
[3]
  inhibition: 3%
[4]
  inhibition: -4%
[5]
  inhibition: 11%
[6]
  inhibition: -3%
[7]
  inhibition: 10%
[8]
  inhibition: 4%
[9]
  inhibition: 2%
[10]
  inhibition: 0%
[11]
  inhibition: 6%

## CC1=C(C#N)[C@@H](c2ccc3[nH]nc(C)c3c2)C(C#N)=C(c2ccc(Cl)cc2)N1 [BAY-827]
[12]
  residual activity: 94.6%
[13]
  residual activity: 100%
[14]
  residual activity: 100%
[15]
  residual activity: 100%
[16]
  residual activity: 100%
[17]
  residual activity: 99.4%
[18]
  residual activity: 72.2%
[19]
  residual activity: 100%
[20]
  residual activity: 100%
[21]
  residual activity: 56.7%
[22]
  residual activity: 100%
[23]
  residual activity: 95.4%
[24]
  residual activity: 79.5%
[25]
  residual activity: 53.5%
[26]
  residual activity: 49.9%
[27]
  residual activity: 100%
[28]
  residual activity: 80.3%
[29]
  residual activity: 100%
[30]
  residual activity: 100%
[31]
  residual activity: 93.9%
[32]
  residual activity: 100%
[33]
  residual activity: 100%
[34]
  residual activity: 73.8%
[35]
  residual activity: 100%
[36]
  residual activity: 100%
[37]
  residual activity: 100%
[38]
  residual activity: 88.1%
[39]
  residual activity: 100%
